According to the PolyMetriX glass transition set:
± gives the standard deviation of the reports.

glass transition temperature [°C] | SMILES
294.8 ± 1.1 | *C(=O)c1ccc2c(c1)C(=O)N(c1cc(N3C(=O)c4ccc(*)cc4C3=O)cc(C(F)(F)F)c1)C2=O (repeat unit)
293.00 ± 4.9 | *C(=O)c1ccc2c(c1)C(=O)N(c1ccc(C(=O)c3ccc(N4C(=O)c5ccc(*)cc5C4=O)cc3)cc1)C2=O (repeat unit)
325.00 ± 11 | *C(=O)c1ccc2c(c1)C(=O)N(c1ccc(N3C(=O)c4ccc(*)cc4C3=O)cc1)C2=O (repeat unit)
248.8 ± 18 | *C(=O)c1ccc2c(c1)C(=O)N(c1ccc(Oc3ccc(C(c4ccc(Oc5ccc(N6C(=O)c7ccc(*)cc7C6=O)cc5)cc4)(C(F)(F)F)C(F)(F)F)cc3)cc1)C2=O (repeat unit)
290.00 ± 28 | *C(=O)c1ccc2c(c1)C(=O)N(c1ccc(Oc3ccc(N4C(=O)c5ccc(*)cc5C4=O)cc3)cc1)C2=O (repeat unit)
235.00 | *C(=O)c1ccc2c(c1)C(=O)N(c1cccc(C(O[Si](C)(C)O[Si](C)(C)O[Si](C)(C)C)c3cccc(N4C(=O)c5ccc(*)cc5C4=O)c3)c1)C2=O (repeat unit)
249.50 ± 20 | *C(=O)c1ccc2c(c1)C(=O)N(c1cccc(Cc3cccc(N4C(=O)c5ccc(*)cc5C4=O)c3)c1)C2=O (repeat unit)
275.50 ± 3.5 | *C(=O)c1ccc2c(c1)C(=O)N(c1cccc(S(=O)(=O)c3cccc(N4C(=O)c5ccc(*)cc5C4=O)c3)c1)C2=O (repeat unit)
265.00 | *C(=S)Nc1ccc(Oc2ccc(NC(=S)n3c(=O)c4cc5c(=O)n(*)c(=O)c5cc4c3=O)cc2)cc1 (repeat unit)
269.00 | *Oc1ccc(C2(c3ccc(Oc4ccc(C(=O)c5cccc6cccc(C(=O)c7ccc(*)cc7)c56)cc4)cc3)c3ccccc3-c3ccccc32)cc1 (repeat unit)
202.00 | *Oc1ccc(Oc2ccc(C(=O)c3cccc4cccc(C(=O)c5ccc(*)cc5)c34)cc2)cc1 (repeat unit)
175.00 | *Oc1ccc(Oc2ccc(C(=O)c3ccccc3-c3ccccc3C(=O)c3ccc(*)cc3)cc2)cc1 (repeat unit)
-24.2 ± 8.1 | *c1cc(CCCCCCCCCCCC)c(*)s1 (repeat unit)
373.50 ± 15 | *c1ccc(-c2ccc(-n3c(=O)c4cc5c(=O)n(*)c(=O)c5cc4c3=O)cc2OC(F)(F)F)c(OC(F)(F)F)c1 (repeat unit)
278.00 | *c1ccc(-c2nnc(-c3cccc(-c4nnc(*)o4)c3)o2)cc1 (repeat unit)
75.00 | *c1ccc(-n2ccc(-c3cccc(-c4ccn(*)n4)c3)n2)cc1 (repeat unit)
78.00 | *c1ccc(/C=C(\C#N)c2cc(OCCCCCCCC)c(/C(C#N)=C/c3ccc(N(*)c4ccccc4)cc3)cc2OCCCCCCCC)cc1 (repeat unit)
340.00 ± 11 | *c1ccc(C(=O)c2cccc(-n3c(=O)c4cc5c(=O)n(*)c(=O)c5cc4c3=O)c2)cc1 (repeat unit)
362.50 ± 25 | *c1ccc(C(c2ccc(-n3c(=O)c4cc5c(=O)n(*)c(=O)c5cc4c3=O)cc2)(C(F)(F)F)C(F)(F)F)cc1 (repeat unit)
205.00 | *c1ccc(Cc2ccc(-c3nc(-c4cccc(-c5nnc(-c6ccccc6)c(*)n5)n4)nnc3-c3ccccc3)cc2)cc1 (repeat unit)
356.50 | *c1ccc(Cc2ccccc2-n2c(=O)c3cc4c(=O)n(*)c(=O)c4cc3c2=O)cc1 (repeat unit)
268.00 | *c1ccc(Oc2ccc(-c3cc(-c4cccc(-c5cc(*)c6ccccc6n5)c4)nc4ccccc34)cc2)cc1 (repeat unit)
302.50 ± 11 | *c1ccc(Oc2ccc(C(c3ccc(Oc4ccc(-n5c(=O)c6cc7c(=O)n(*)c(=O)c7cc6c5=O)cc4)cc3)(C(F)(F)F)C(F)(F)F)cc2)cc1 (repeat unit)

glass transition temperature [°C] | SMILES
226.50 ± 43 | *c1ccc(Oc2ccc(N3C(=O)c4ccc(Oc5ccc(C(c6ccc(Oc7ccc8c(c7)C(=O)N(*)C8=O)cc6)(C(F)(F)F)C(F)(F)F)cc5)cc4C3=O)cc2)cc1 (repeat unit)
293.8 ± 1.8 | *c1ccc(Oc2ccc(N3C(=O)c4cccc(Oc5cccc6c5C(=O)N(*)C6=O)c4C3=O)cc2)cc1 (repeat unit)
260.50 ± 3.5 | *c1ccc(Oc2ccc(Oc3ccc(N4C(=O)c5cccc(Oc6cccc7c6C(=O)N(*)C7=O)c5C4=O)cc3)cc2)cc1 (repeat unit)
386.00 | *c1ccc(Oc2ccccc2-n2c(=O)c3cc4c(=O)n(*)c(=O)c4cc3c2=O)cc1 (repeat unit)
336.50 ± 0.7 | *c1ccc2c(c1)C(=O)N(c1ccc(S(=O)(=O)c3ccc(N4C(=O)c5ccc(C(*)(C(F)(F)F)C(F)(F)F)cc5C4=O)cc3)cc1)C2=O (repeat unit)
206.50 ± 0.7 | *c1ccc2c(c1)C(=O)N(c1cccc(Oc3cccc(Oc4cccc(N5C(=O)c6ccc(C(*)(C(F)(F)F)C(F)(F)F)cc6C5=O)c4)c3)c1)C2=O (repeat unit)
121.00 ± 7.1 | *c1ccc2c3ccc(-c4ccc(-c5ccc(-c6ccc(*)s6)c6nsnc56)s4)cc3n(C(CCCCCCCC)CCCCCCCC)c2c1 (repeat unit)
301.00 | *c1ccc2oc(-c3cccc(-c4nc5cc(C(*)(c6ccccc6)C(F)(F)F)ccc5o4)c3)nc2c1 (repeat unit)
290.00 | *c1cccc(-c2ccc3[nH]c(S(=O)(=O)c4nc5ccc(*)cc5[nH]4)nc3c2)c1 (repeat unit)
346.66 | *c1cccc(-c2nc3cc(-c4ccc5c(c4)nc(*)n5C)ccc3[nH]2)c1 (repeat unit)
365.00 | *c1cccc(-c2nc3cc4nc(-c5ccccc5)c(*)nc4cc3nc2-c2ccccc2)c1 (repeat unit)
420.00 | *c1cccc(-c2nc3ccc(-c4ccc5nc(*)[nH]c5c4)cc3[nH]2)c1 (repeat unit)
29.00 | *c1cccc(C(F)(F)C(F)(F)C(*)(F)F)c1 (repeat unit)
219.00 | *c1cccc(C(O[Si](C)(C)O[Si](C)(C)O[Si](C)(C)C)c2cccc(N3C(=O)c4ccc(Oc5ccc6c(c5)C(=O)N(*)C6=O)cc4C3=O)c2)c1 (repeat unit)
327.50 | *c1cccc(Cc2cccc(-n3c(=O)c4cc5c(=O)n(*)c(=O)c5cc4c3=O)c2)c1 (repeat unit)
251.00 | *c1cccc(Oc2ccc(-c3ccc(Oc4cccc(-n5c(=O)c6cc7c(=O)n(*)c(=O)c7cc6c5=O)c4)cc3)cc2)c1 (repeat unit)
280.00 | *c1cccc(Oc2cccc(Oc3cccc(N4C(=O)c5c(c(-c6ccccc6)c(-c6ccc(-c7c(-c8ccccc8)c8c(c(-c9ccccc9)c7-c7ccccc7)C(=O)N(*)C8=O)cc6)c(-c6ccccc6)c5-c5ccccc5)C4=O)c3)c2)c1 (repeat unit)
360.00 | *c1cccc(S(=O)(=O)c2cccc(-n3c(=O)c4cc5c(=O)n(*)c(=O)c5cc4c3=O)c2)c1 (repeat unit)
150.00 | *c1cnc(C2C(c3ccccc3)C(*)C2c2ccccc2)cn1 (repeat unit)
67.00 | *c1nc(C)nc(N(CCCCCCN(*)c2ccccc2)c2ccccc2)n1 (repeat unit)
85.00 | *c1nc(C)nc(N(CCCCN(*)c2ccccc2)c2ccccc2)n1 (repeat unit)
34.10 | *c1nnc(-c2cc(CCCCCCCC)c(-c3ccc(-c4sc(-c5nnc(-c6cc(OCCCCCCCC)c(*)cc6OCCCCCCCC)o5)cc4CCCCCCCC)s3)s2)o1 (repeat unit)

SMILES | glass transition temperature [°C]
*C(C)C(*)C(=O)OCC (repeat unit) | 157.00
*CC/C=C(/*)C(C)C (repeat unit) | -47.00
*c1cc(CCCCCCCC)c(*)s1 (repeat unit) | -13.10 ± 5.5
*c1cccc(Oc2ccc(P(=O)(c3ccccc3)c3ccccc3)c(Oc3cccc(-n4c(=O)c5cc6c(=O)n(*)c(=O)c6cc5c4=O)c3)c2)c1 (repeat unit) | 251.00
*c1cccc(P(=O)(c2ccc(C(F)(F)F)cc2)c2cccc(-n3c(=O)c4c(-c5ccccc5)c5c(=O)n(*)c(=O)c5c(-c5ccccc5)c4c3=O)c2)c1 (repeat unit) | 337.00
*c1cccc(P(=O)(c2ccc(C(F)(F)F)cc2)c2cccc(-n3c(=O)c4cc5c(=O)n(*)c(=O)c5c(-c5cc(C(F)(F)F)cc(C(F)(F)F)c5)c4c3=O)c2)c1 (repeat unit) | 290.00
*c1cccc(P(=O)(c2ccc(C(F)(F)F)cc2)c2cccc(-n3c(=O)c4cc5c(=O)n(*)c(=O)c5cc4c3=O)c2)c1 (repeat unit) | 311.00
*c1cccc(P(=O)(c2cccc(-n3c(=O)c4c(-c5cc(C(F)(F)F)cc(C(F)(F)F)c5)c5c(=O)n(*)c(=O)c5c(-c5cc(C(F)(F)F)cc(C(F)(F)F)c5)c4c3=O)c2)c2cc(C(F)(F)F)cc(C(F)(F)F)c2)c1 (repeat unit) | 293.00
*c1cccc(P(=O)(c2cccc(-n3c(=O)c4c(-c5ccc(C(F)(F)F)cc5)c5c(=O)n(*)c(=O)c5c(-c5ccc(C(F)(F)F)cc5)c4c3=O)c2)c2cc(C(F)(F)F)cc(C(F)(F)F)c2)c1 (repeat unit) | 310.00
*c1cccc(P(=O)(c2cccc(-n3c(=O)c4cc5c(=O)n(*)c(=O)c5c(-c5cc(C(F)(F)F)cc(C(F)(F)F)c5)c4c3=O)c2)c2cc(C(F)(F)F)cc(C(F)(F)F)c2)c1 (repeat unit) | 280.00
*c1cccc(P(=O)(c2cccc(-n3c(=O)c4cc5c(=O)n(*)c(=O)c5c(-c5ccccc5)c4c3=O)c2)c2cc(C(F)(F)F)cc(C(F)(F)F)c2)c1 (repeat unit) | 300.00
*c1cccc(P(=O)(c2cccc(-n3c(=O)c4cc5c(=O)n(*)c(=O)c5cc4c3=O)c2)c2cc(C(F)(F)F)cc(C(F)(F)F)c2)c1 (repeat unit) | 281.00
*c1cccc(P(C)(=O)c2cccc(N3C(=O)c4ccc(NC(=O)OCCOc5ccc(C(c6ccc(OCCOC(=O)Nc7ccc8c(c7)C(=O)N(*)C8=O)cc6)(C(F)(F)F)C(F)(F)F)cc5)cc4C3=O)c2)c1 (repeat unit) | 204.00
